Test results from PMC9696254, “Discovery of p-Terphenyl Metabolites as Potential Phosphodiesterase PDE4D Inhibitors from the Coral-Associated Fungus Aspergillus sp. ITBBc1” (Marine Drugs, 2022).

Biological target: PDE4D (Homo sapiens, UniProt Q08499)
Assay: in vitro PDE4D inhibition assay, liquid scintillation counting, three independent experiments
Format: biochemical

PDE4D, sequence (Q08499 whole entry): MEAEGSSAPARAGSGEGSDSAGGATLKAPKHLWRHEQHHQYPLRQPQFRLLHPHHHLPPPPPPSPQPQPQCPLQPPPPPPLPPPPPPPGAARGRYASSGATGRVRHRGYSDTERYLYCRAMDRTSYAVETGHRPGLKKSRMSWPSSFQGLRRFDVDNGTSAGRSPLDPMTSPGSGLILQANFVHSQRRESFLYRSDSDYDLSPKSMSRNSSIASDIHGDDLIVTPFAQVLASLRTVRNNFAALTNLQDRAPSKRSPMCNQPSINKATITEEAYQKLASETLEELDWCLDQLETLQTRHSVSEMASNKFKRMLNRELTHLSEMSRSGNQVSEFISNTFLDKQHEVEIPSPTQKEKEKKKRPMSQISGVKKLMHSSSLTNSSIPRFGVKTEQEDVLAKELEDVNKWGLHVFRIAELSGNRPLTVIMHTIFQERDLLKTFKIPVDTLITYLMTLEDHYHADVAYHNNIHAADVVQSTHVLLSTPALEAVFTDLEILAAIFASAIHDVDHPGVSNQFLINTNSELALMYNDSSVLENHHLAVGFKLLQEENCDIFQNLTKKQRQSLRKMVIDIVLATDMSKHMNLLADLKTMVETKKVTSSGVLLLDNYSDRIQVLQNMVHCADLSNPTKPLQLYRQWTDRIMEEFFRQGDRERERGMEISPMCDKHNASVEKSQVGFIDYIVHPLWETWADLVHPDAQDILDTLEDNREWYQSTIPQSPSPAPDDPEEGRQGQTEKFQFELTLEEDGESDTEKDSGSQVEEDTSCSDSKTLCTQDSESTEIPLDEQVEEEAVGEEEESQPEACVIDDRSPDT

- IC50: 5.54 ± 0.24 µM
SMILES: COc1cc(-c2ccccc2)c(OC)c(O)c1-c1ccc2c(c1)C=CC(C)(C)O2 [compound 3, Sanshamycin C]
